Experimental data as given in PubChem BioAssay AID256 (DTP/NCI, 2004).
Values joined by “and” are separate entries in the source; they are usually repeats but may differ in a detail not shown here. Equal entries are not always repeated. Inconclusive results and toxic doses are left out. The calls were made as follows: active = survival T/C of 150% or more; inactive = T/C below 125% in these data.

System: CD2F1 mice, L1210 leukemia ip, survival T/C
Test: NCI In Vivo Anticancer Drug Screen. Data for tumor model L1210 Leukemia (intraperitoneal) in CD2F1 (CDF1) mice
Conditions: higher = longer survival
Method in brief: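 Implant tumor; dose compound or vehicle; measure endpoint in both groups; report treated divided by control.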

[1] = endpoint: mean survival time, dose: 100.0 mg/kg/injection, schedule: Q01DX009 (ip), vehicle: saline
[2] = endpoint: mean survival time, dose: 200.0 mg/kg/injection, schedule: Q01DX009 (ip), vehicle: saline
[3] = endpoint: mean survival time, dose: 400.0 mg/kg/injection, schedule: Q01DX009 (ip), vehicle: saline
[4] = endpoint: mean survival time, dose: 100.0 mg/kg/injection, schedule: Q01DX009 (ip), vehicle: saline with Tween-80
[5] = endpoint: mean survival time, dose: 200.0 mg/kg/injection, schedule: Q01DX009 (ip), vehicle: saline with Tween-80
[6] = endpoint: mean survival time, dose: 400.0 mg/kg/injection, schedule: Q01DX009 (ip), vehicle: saline with Tween-80
[7] = endpoint: mean survival time, dose: 100.0 mg/kg/injection, schedule: Q04DX003 (ip), vehicle: saline with Tween-80
[8] = endpoint: mean survival time, dose: 200.0 mg/kg/injection, schedule: Q04DX003 (ip), vehicle: saline with Tween-80
[9] = endpoint: mean survival time, dose: 400.0 mg/kg/injection, schedule: Q04DX003 (ip), vehicle: saline with Tween-80
[10] = endpoint: mean survival time, dose: 50.0 mg/kg/injection, schedule: Q01DX009 (ip), vehicle: Klucel (hydroxypropylcellulose) (HPC)
[11] = endpoint: mean survival time, dose: 100.0 mg/kg/injection, schedule: Q01DX009 (ip), vehicle: Klucel (hydroxypropylcellulose) (HPC)

Measured: T/C

CC(C)(C)NC(=O)NCCCN1CCOCC1
inactive: [1] 102 % of control | [2] 98 % of control | [3] 91 % of control

COC(=O)CC1(C(=O)OC)OC(=O)c2ccccc2N1C (stereo not given)
inactive: [4] 103 % of control | [5] 106 % of control | [6] 101 % of control

CN(C=O)C(C(=O)Nc1cccc2c(OC(=O)C(N(C)C=O)(N(C)C=O)N(C)C=O)c(N=Nc3ccc(S(=O)(=O)Nc4nccs4)cc3)cc(N=Nc3ccc(S(=O)(=O)Nc4nccs4)cc3)c12)(N(C)C=O)N(C)C=O (tested in a mixture with another compound)
inactive: endpoint: median survival time, dose: 12.0 mg/kg/injection, schedule: Q01DX009 (ip), vehicle: saline with Tween-80 95 % of control | endpoint: median survival time, dose: 25.0 mg/kg/injection, schedule: Q01DX009 (ip), vehicle: saline with Tween-80 106 % of control | endpoint: median survival time, dose: 50.0 mg/kg/injection, schedule: Q01DX009 (ip), vehicle: saline with Tween-80 95 % of control | endpoint: median survival time, dose: 100.0 mg/kg/injection, schedule: Q01DX009 (ip), vehicle: saline with Tween-80 94 % of control | endpoint: median survival time, dose: 200.0 mg/kg/injection, schedule: Q01DX009 (ip), vehicle: saline with Tween-80 97 % of control | endpoint: median survival time, dose: 400.0 mg/kg/injection, schedule: Q01DX009 (ip), vehicle: saline with Tween-80 106 % of control

CCCCCCCCCCC(=O)CC
inactive: [7] 100 % of control | [8] 102 % of control | [9] 98 % of control

CCC[CH2][Sn]1([CH2]CCC)[O]C2C(CO)OC(n3c(Br)c(C#N)c4c(N)ncnc43)C2[O]1 (stereo not given)
inactive: endpoint: mean survival time, dose: 1.56 mg/kg/injection, schedule: Q01DX005 (ip), vehicle: distilled water + Tween-80 93 % of control | endpoint: mean survival time, dose: 3.13 mg/kg/injection, schedule: Q01DX005 (ip), vehicle: distilled water + Tween-80 98 % of control

CC(C)(C)OOC(=O)C1CCCCCCC1
inactive: [7] 98 % of control | [8] 96 % of control | [9] 96 % of control

O=C(NNC1CCCCC1)c1ccccc1
inactive: endpoint: mean survival time, dose: 100.0 mg/kg/injection, schedule: Q01DX009 (ip), vehicle: acetone 103 % of control

NC1=NCN(C2OC(CO)C(O)C2O)C(=O)N1 (stereo not given)
inactive: endpoint: mean survival time, dose: 1.56 mg/kg/injection, schedule: Q01DX009 (ip), vehicle: saline 96 % of control | endpoint: mean survival time, dose: 3.12 mg/kg/injection, schedule: Q01DX009 (ip), vehicle: saline 113 % of control and 120 % of control and 93 % of control | endpoint: mean survival time, dose: 3.13 mg/kg/injection, schedule: Q01DX009 (ip), vehicle: saline 113 % of control | endpoint: mean survival time, dose: 6.25 mg/kg/injection, schedule: Q01DX009 (ip), vehicle: saline 96 % of control | endpoint: mean survival time, dose: 12.5 mg/kg/injection, schedule: Q01DX009 (ip), vehicle: saline 89 % of control | endpoint: mean survival time, dose: 25.0 mg/kg/injection, schedule: Q01DX009 (ip), vehicle: saline 90 % of control and 100 % of control | endpoint: mean survival time, dose: 50.0 mg/kg/injection, schedule: Q01DX009 (ip), vehicle: saline 110 % of control | endpoint: mean survival time, dose: 50.0 mg/kg/injection, schedule: Q01DX009 (oral), vehicle: saline 96 % of control | [1] 95 % of control | endpoint: mean survival time, dose: 100.0 mg/kg/injection, schedule: Q01DX009 (oral), vehicle: saline 110 % of control | [2] 95 % of control | endpoint: mean survival time, dose: 200.0 mg/kg/injection, schedule: Q01DX009 (oral), vehicle: saline 119 % of control | [3] 124 % of control | endpoint: mean survival time, dose: 600.0 mg/kg/injection, schedule: Q01DX009 (ip), vehicle: saline 100 % of control | endpoint: mean survival time, dose: 800.0 mg/kg/injection, schedule: Q01DX009 (oral), vehicle: saline 118 % of control | endpoint: median survival time, dose: 1.56 mg/kg/injection, schedule: Q01DX009 (ip), vehicle: saline 110 % of control | endpoint: median survival time, dose: 32.0 mg/kg/injection, schedule: Q03HX008 (ip), vehicle: saline 124 % of control | endpoint: median survival time, dose: 64.0 mg/kg/injection, schedule: Q01DX001 (oral), vehicle: saline 98 % of control | endpoint: median survival time, dose: 64.0 mg/kg/injection, schedule: Q01DX009 (oral), vehicle: saline 100 % of control | endpoint: median survival time, dose: 64.0 mg/kg/injection, schedule: Q03HX008 (ip), vehicle: saline 124 % of control | endpoint: median survival time, dose: 128.0 mg/kg/injection, schedule: Q03HX024 (oral), vehicle: saline 113 % of control | endpoint: median survival time, dose: 128.0 mg/kg/injection, schedule: Q04DX003 (oral), vehicle: saline 98 % of control | endpoint: median survival time, dose: 256.0 mg/kg/injection, schedule: Q01DX001 (ip), vehicle: saline 124 % of control | endpoint: median survival time, dose: 256.0 mg/kg/injection, schedule: Q01DX001 (oral), vehicle: saline 100 % of control | endpoint: median survival time, dose: 256.0 mg/kg/injection, schedule: Q03HX008 (oral), vehicle: saline 118 % of control | endpoint: median survival time, dose: 256.0 mg/kg/injection, schedule: Q04DX003 (oral), vehicle: saline 100 % of control | endpoint: median survival time, dose: 512.0 mg/kg/injection, schedule: Q03HX008 (oral), vehicle: saline 124 % of control | endpoint: median survival time, dose: 512.0 mg/kg/injection, schedule: Q04DX003 (oral), vehicle: saline 113 % of control | endpoint: median survival time, dose: 1024.0 mg/kg/injection, schedule: Q01DX001 (oral), vehicle: saline 124 % of control | endpoint: median survival time, dose: 1024.0 mg/kg/injection, schedule: Q01DX009 (ip), vehicle: saline 92 % of control and 98 % of control | endpoint: median survival time, dose: 1024.0 mg/kg/injection, schedule: Q01DX009 (sc), vehicle: saline 91 % of control

CN(C)N=Nc1ccc(C#N)cc1C(N)=O
inactive: endpoint: mean survival time, dose: 18.8 mg/kg/injection, schedule: Q01DX009 (ip), vehicle: Klucel (hydroxypropylcellulose) (HPC) 106 % of control | endpoint: mean survival time, dose: 37.5 mg/kg/injection, schedule: Q01DX009 (ip), vehicle: Klucel (hydroxypropylcellulose) (HPC) 119 % of control | endpoint: mean survival time, dose: 150.0 mg/kg/injection, schedule: Q01DX009 (ip), vehicle: Klucel (hydroxypropylcellulose) (HPC) 101 % of control

CCOC(=O)C1(C(=O)OCC)COC(C)(C)OC1
inactive: [1] 93 % of control | [2] 94 % of control | [3] 94 % of control

CC(=O)/C(C)=C\c1ccccc1
inactive: [4] 96 % of control | [7] 92 % of control | [5] 94 % of control | [8] 94 % of control | [6] 98 % of control | [9] 94 % of control

C=C1C(=O)OC2/C=C(\C)CC/C=C(/C=O)C(OC(=O)C(C)C)C(O)C12 (stereo not given)
inactive: endpoint: mean survival time, dose: 1.0 mg/kg/injection, schedule: Q01DX009 (ip), vehicle: saline with Tween-80 113 % of control and 103 % of control | endpoint: mean survival time, dose: 2.0 mg/kg/injection, schedule: Q01DX009 (ip), vehicle: saline with Tween-80 103 % of control and 105 % of control and 107 % of control | endpoint: mean survival time, dose: 4.0 mg/kg/injection, schedule: Q01DX009 (ip), vehicle: saline with Tween-80 97 % of control and 100 % of control and 107 % of control | endpoint: mean survival time, dose: 8.0 mg/kg/injection, schedule: Q01DX009 (ip), vehicle: saline with Tween-80 102 % of control and 109 % of control and 112 % of control | endpoint: mean survival time, dose: 16.0 mg/kg/injection, schedule: Q01DX009 (ip), vehicle: saline with Tween-80 92 % of control and 96 % of control

CCCCCCCCCCCCCCCC(=O)N(CCCCN(CCCN(C)C)C(=O)CCCCCCCCCCCCCCC)CCCN(C)C
inactive: endpoint: mean survival time, dose: 25.0 mg/kg/injection, schedule: Q01DX009 (ip), vehicle: saline with Tween-80 93 % of control | endpoint: mean survival time, dose: 50.0 mg/kg/injection, schedule: Q01DX009 (ip), vehicle: saline with Tween-80 91 % of control

CC1(C)CC(C)(OC(=O)c2ccccc2)[N+]([O-])=N1 (stereo not given)
inactive: endpoint: mean survival time, dose: 25.0 mg/kg/injection, schedule: Q01DX009 (ip), vehicle: Klucel (hydroxypropylcellulose) (HPC) 100 % of control | [10] 98 % of control | [11] 98 % of control | endpoint: mean survival time, dose: 200.0 mg/kg/injection, schedule: Q01DX009 (ip), vehicle: Klucel (hydroxypropylcellulose) (HPC) 95 % of control | endpoint: mean survival time, dose: 400.0 mg/kg/injection, schedule: Q01DX009 (ip), vehicle: Klucel (hydroxypropylcellulose) (HPC) 98 % of control

CC(=O)OCC1OC(n2cnc3c(=S)nc(N)[nH]c32)C(OC(C)=O)C1OC(C)=O (stereo not given)
inactive: endpoint: mean survival time, dose: 100.0 mg/kg/injection, schedule: Q01DX005 (ip), vehicle: saline 112 % of control | endpoint: mean survival time, dose: 200.0 mg/kg/injection, schedule: Q01DX005 (ip), vehicle: saline 123 % of control

Nc1nc(N)c2cc(CNc3ccc(C(=O)NC(CC(=O)O)CC(=O)O)cc3)cnc2n1
inactive: [10] 94 % of control | [11] 98 % of control

CCOC(=O)CCSCCC(=O)OCC
inactive: [7] 100 % of control | [8] 96 % of control | [9] 98 % of control

O=C(O)COc1cc(Cl)c(Cl)cc1Cl (tested in a mixture with another compound)
inactive: endpoint: mean survival time, dose: 100.0 mg/kg/injection, schedule: Q04DX002 (ip), vehicle: saline with Tween-80 96 % of control | endpoint: mean survival time, dose: 200.0 mg/kg/injection, schedule: Q04DX002 (ip), vehicle: saline with Tween-80 114 % of control
